{
  "source": "patent US5929027A",
  "about": "“Physiologically active polypeptide-containing pharmaceutical composition” (priority 1991, dated 1999)",
  "key": {"[1]": {"system": "calcium and phosphur in blood", "experiment": "Experiment 11: blood calcium and phosphur concentration after sublingual rapidly soluble composition", "format": "in vivo", "settings": "Beagle dog, tartaric acid 10 w/v % + S-570 2 w/v %, FIG. 8", "excerpt": "The results are shown in the accompanying FIG. 8."}, "[2]": {"settings": "Beagle dog, sublingual, tartaric acid 10 w/v % + S-570 2 w/v %, FIG. 8"}, "in vivo": {"experiment": "in vivo", "settings": "male, Beagle, dog, serum, 1 mg, Maximum blood concentration of human calcitonin in average (pg/ml), sublingual rapidly soluble composition", "description": "Each one of the test material was administered by a sublingual route to a male Beagle dog which fasted over-night, and the blood was collected at intervals (after 10, 20, 30, 45 and 60 minutes). After the serum was separated, the calcium concentration in serum was measured with Calcium C kit (manufactured by Wako Junyaku K. K., Japan) (n=3).\nIn the same manner as in Experiment 8, the test material was administered to the dog, and the blood was collected at intervals. After the serum was separated, the human calcitonin concentration in serum was measured by RIA."}},
  "data": [
    {"smiles": "CC[C@H](C)[C@H](NC(=O)[C@H](C)NC(=O)[C@@H](NC(=O)[C@H](CCC(N)=O)NC(=O)[C@@H]1CCCN1C(=O)[C@H](Cc1ccccc1)NC(=O)[C@@H](NC(=O)[C@H](Cc1c[nH]cn1)NC(=O)[C@H](Cc1ccccc1)NC(=O)[C@H](CCCCN)NC(=O)[C@H](CC(N)=O)NC(=O)[C@H](Cc1ccccc1)NC(=O)[C@H](CC(=O)O)NC(=O)[C@H](CCC(N)=O)NC(=O)[C@@H](NC(=O)[C@H](Cc1ccc(O)cc1)NC(=O)[C@@H](NC(=O)CNC(=O)[C@H](CC(C)C)NC(=O)[C@H](CCSC)NC(=O)[C@@H]1CSSC[C@H](N)C(=O)NCC(=O)N[C@@H](CC(N)=O)C(=O)N[C@@H](CC(C)C)C(=O)N[C@@H](CO)C(=O)N[C@@H]([C@@H](C)O)C(=O)N1)[C@@H](C)O)[C@@H](C)O)[C@@H](C)O)[C@@H](C)O)C(=O)NCC(=O)N[C@H](C(=O)NCC(=O)N[C@@H](C)C(=O)N1CCC[C@H]1C(N)=O)C(C)C", "note": "[human calcitonin]", "values": [
      {"measurement": "concentration of calcium in blood", "setting": "[1]", "result": "lowered"},
      {"measurement": "concentration of phosphur in blood", "setting": "[1]", "result": "lowered"},
      {"measurement": "blood human calcitonin concentration", "setting": "[2]", "result": "increase"},
      {"measurement": "Cmax", "setting": "in vivo; S-970 1.0 w/v %, citric acid 2.0 w/v %", "result": 0.086, "unit": "ng/mL"},
      {"measurement": "Cmax", "setting": "in vivo; S-970 2.5 w/v %, citric acid 5.0 w/v %", "result": 0.191, "unit": "ng/mL"},
      {"measurement": "Cmax", "setting": "in vivo; S-970 5.0 w/v %, citric acid 10.0 w/v %", "result": 1.12, "unit": "ng/mL"},
      {"measurement": "Cmax", "setting": "in vivo; S-970 10.0 w/v %, citric acid 20.0 w/v %", "result": 1.65, "unit": "ng/mL"}
    ]}
  ]
}
